Experimental data reported in PMC3425833, “Synthesis, Urease Inhibition, Antioxidant, Antibacterial, and Molecular Docking Studies of 1,3,4-Oxadiazole Derivatives” (ISRN Pharmacology, 2012).
Converted amounts (≈) assume the structure as drawn. Read-outs that look alike come from different tables or passages of the source.

Tests used:
[1] = DPPH radical scavenging (antioxidant) assay; settings: for IC50: DPPH 300 μM, half an hour at 37°C; for DPPH radical scavenging activity compared to standard propyl gallate: in words
Method: The free radical scavenging capacity of the compounds was measured by 1,1-diphenyl-2-picrylhydrazyl. Test compounds were allowed to react with stable free radical, 1,1-diphenyl-2-picrylhydrazyl radical (DPPH) for half an hour at 37°C. The concentration of DPPH was kept as 300 μM. The test samples were dissolved in DMSO while the DPPH solution was prepared in ethanol. After incubation, decrease in absorption was measured at 515 nm using microplate reader. Percent radical scavenging activity of samples was determined in comparison with a DMSO treated as control. Propyl gallate and 3-tert-Butyl-4-hydroxyanisole were used as standards.

Bacillus subtilis = assay: Antibacterial activity, serial tube dilution MIC; assay type: cell-based; settings: for MIC: Bacillus subtilis, read-out: MIC B. subtilus
Method: (§1) The antibacterial activity data is represented in Table 2. […] Ciprofloxacin was used as standard drug. The compounds were found active against bacterial strains (2 Gram positive bacteria, namely, Staphylococcus aureus, Bacillus subtilis, and 2 Gram negative bacteria namely Escherichia coli, Shigella flexneri) in variable concentration. The antibacterial activities of 1,3,4-oxadiazole derivatives were evaluated in vitro by serial tube dilution method. The compounds and standard drug ciprofloxacin were dissolved in N,N-dimethylformamide (DMF) to give a concentration of 5 μg/mL (stock solution). Necessary apparatus and test tubes set of capacity 5 mL was washed cleaned and completely dried. For the bacterial culture double strength nutrient broth was used. The culture media was made by dissolving 15 g of nutrient broth in 1 L of distilled water. Approximately, 1 mL of culture media was prepared and transferred to each test tube by micropipette and capped with non-adsorbent cotton plugs. The test tubes containing 1 mL culture media was sterilized in an autoclave at 121°C for 20 min at 15 psi pressure. Sub-culturing of bacteria was done by transferring a loopful of particular bacterial strain from standard bacterial agar to 10 mL sterilized nutrient broth aseptically in a laminar air flow cabinet. It was then incubated for a period of 24 h at 37°C in a B. O. D. incubator. Bacterial strain suspension was prepared, after 24 h incubation, by aseptically inoculating 0.2 mL of revived bacterial colony into 100 mL of 0.9% m/v saline. A series of 5 assay tubes for a single derivative against each bacterial strain was employed. A stock solution of each test derivative at concentration 5 μg/mL (containing 1 mL nutrient broth) was serially diluted to achieve concentrations of 2.5, 1.25, 0.625, 0.313, and 0.156 μg/mL. Then, 0.1 mL of normal saline suspension of revived bacteria was added to each test tube. The inoculated tubes were incubated at 37°C for 24 h. The MIC (minimum inhibitory concentration) values were determined by subsequently checking for the absence of visual turbidity.

Escherichia coli = assay: Antibacterial activity, serial tube dilution MIC; assay type: cell-based; settings: for MIC: Escherichia coli, 24 h, read-out: MIC E. coli; for Antibacterial activity against E. coli compared to standard ciprofloxacin: in words
Method: as §1

Staphylococcus aureus = assay: Antibacterial activity, serial tube dilution MIC; assay type: cell-based; settings: for MIC: Staphylococcus aureus, read-out: MIC S. aureus; for Antibacterial activity against S. aureus compared to standard ciprofloxacin: in words
Method: as §1

Shigella flexneri = assay: Antibacterial activity, serial tube dilution MIC; assay type: cell-based; settings: for MIC: Shigella flexneri, read-out: MIC S. flexneri; for Antibacterial activity against S. flexneri compared to standard ciprofloxacin: in words
Method: as §1

Jack bean urease = Jack bean urease (Canavalia ensiformis, UniProt P07374); assay: biochemical; assay type: biochemical; settings: for Urease inhibitory activity in words: qualitative statement
Jack bean urease, sequence (P07374 whole entry, looked up): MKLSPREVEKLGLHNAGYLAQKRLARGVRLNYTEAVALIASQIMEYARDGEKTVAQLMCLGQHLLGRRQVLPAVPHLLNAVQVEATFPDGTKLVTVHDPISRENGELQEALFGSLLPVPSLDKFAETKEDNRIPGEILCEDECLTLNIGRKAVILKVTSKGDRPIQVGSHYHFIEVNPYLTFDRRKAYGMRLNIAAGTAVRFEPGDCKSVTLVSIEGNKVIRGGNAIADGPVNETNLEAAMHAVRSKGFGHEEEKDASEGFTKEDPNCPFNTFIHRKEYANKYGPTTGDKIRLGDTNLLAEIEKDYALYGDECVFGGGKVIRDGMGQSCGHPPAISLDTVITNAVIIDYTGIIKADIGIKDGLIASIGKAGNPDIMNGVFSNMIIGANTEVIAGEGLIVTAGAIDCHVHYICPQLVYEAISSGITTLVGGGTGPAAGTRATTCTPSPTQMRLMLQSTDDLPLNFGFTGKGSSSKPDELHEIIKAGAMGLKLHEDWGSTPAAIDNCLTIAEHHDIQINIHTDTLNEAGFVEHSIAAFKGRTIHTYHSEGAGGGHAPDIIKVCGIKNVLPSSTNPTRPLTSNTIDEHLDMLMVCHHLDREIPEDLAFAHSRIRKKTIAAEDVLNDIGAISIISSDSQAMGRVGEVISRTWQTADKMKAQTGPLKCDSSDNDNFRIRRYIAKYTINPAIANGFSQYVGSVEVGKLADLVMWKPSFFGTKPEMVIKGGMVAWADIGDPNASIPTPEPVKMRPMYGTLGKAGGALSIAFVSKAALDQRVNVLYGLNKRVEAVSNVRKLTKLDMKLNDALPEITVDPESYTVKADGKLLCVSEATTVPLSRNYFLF

[2] = average of three readings, 24 h at 37°C

| SMILES | IC50 [1] | MIC (Bacillus subtilis; [2]) | MIC (Escherichia coli; [2]) | MIC (Staphylococcus aureus; [2]) | MIC (Shigella flexneri; 24 h) | Antibacterial activity against B. subtilus relative to ciprofloxacin (Bacillus subtilis) | MIC (Escherichia coli) | MIC (Shigella flexneri; [2]) | Antibacterial activity against S. flexneri compared to standard ciprofloxacin (Shigella flexneri) | IC50 (Jack bean urease) | MIC (Bacillus subtilis; 24 h) | Antibacterial activity against S. aureus compared to standard ciprofloxacin (Staphylococcus aureus) | Urease inhibitory activity in words (Jack bean urease) | Antibacterial activity against E. coli compared to standard ciprofloxacin (Escherichia coli) | DPPH radical scavenging activity compared to standard propyl gallate [1] | MIC (Staphylococcus aureus; 24 h) | Urease inhibitory activity relative to the standard (thiourea) (Jack bean urease; more active than the standard) | IC50 (Jack bean urease; triplicate, thiourea standard, read-out: IC50 ± SEM, inhibitory activity against Jack bean urease) |
| --- | --- | --- | --- | --- | --- | --- | --- | --- | --- | --- | --- | --- | --- | --- | --- | --- | --- | --- |
| COc1ccc(O)c(C(C)(C)C)c1 [3-tert-Butyl-4-hydroxyanisole, reference compound] | 28.2 ± 1.1 µM | – | – | – | – | – | – | – | – | – | – | – | – | – | – | – | – | – |
| O=C(O)c1cn(C2CC2)c2cc(N3CCNCC3)c(F)cc2c1=O [Ciprofloxacin, reference compound] | – | 0.625 µg/mL (≈ 1.89 µM) | 0.156 µg/mL (≈ 0.471 µM) | 0.156 µg/mL (≈ 0.471 µM) | 0.31 µg/mL (≈ 0.936 µM) | – | – | – | – | – | – | – | – | – | – | – | – | – |
| COc1ccc(-c2n[nH]c(=S)o2)c(OC)c1OC [Compound 4a, 5-(2,3,4-Trimethoxyphenyl)-1,3,4-oxadiazole-2(3H)-thione] | 123 ± 5.1 µM | 0.156 µg/mL (≈ 0.581 µM) | – | 1.25 µg/mL (≈ 4.66 µM) | – | 4 fold | 0.313 µg/mL (≈ 1.17 µM) | 0.313 µg/mL (≈ 1.17 µM) | equipotent activity | 5.79 ± 0.3 µM | – | – | – | – | – | – | – | – |
| S=c1[nH]nc(-c2cc3ccccc3[nH]2)o1 [Compound 4b, 5-(1H-Indol-2-yl)-1,3,4-oxadiazole-2(3H)-thione] | 107 ± 3.4 µM | – | 0.625 µg/mL (≈ 2.88 µM) | 0.156 µg/mL (≈ 0.718 µM) | – | – | – | 0.313 µg/mL (≈ 1.44 µM) | equipotent activity | 21.3 ± 0.7 µM | 0.313 µg/mL (≈ 1.44 µM) | equipotent activity | nearly same activity | – | – | – | – | – |
| S=c1[nH]nc(Cc2ccc(Br)cc2)o1 [Compound 4c, 5-(4-Bromobenzyl)-1,3,4-oxadiazole-2(3H)-thione] | 38 ± 4.1 µM | – | 2.5 µg/mL (≈ 9.22 µM) | 0.625 µg/mL (≈ 2.31 µM) | – | 4 fold | – | 0.156 µg/mL (≈ 0.575 µM) | two-fold activities | 11.8 ± 0.4 µM | 0.156 µg/mL (≈ 0.575 µM) | – | – | considerably less active | more effective | – | – | – |
| S=c1[nH]nc(Cc2ccc(Cl)c(Cl)c2)o1 [Compound 4e, 5-(3,4-Dichlorobenzyl)-1,3,4-oxadiazole-2(3H)-thione] | 59 ± 6.3 µM | 0.625 µg/mL (≈ 2.39 µM) | 0.156 µg/mL (≈ 0.597 µM) | – | – | – | – | 0.313 µg/mL (≈ 1.2 µM) | equipotent activity | 11.3 ± 0.6 µM | – | – | – | equipotent | – | 0.313 µg/mL (≈ 1.2 µM) | – | – |
| Fc1ccccc1Cc1n[nH]c(=S)o1 [Compound 4f, 5-(2-Fluorobenzyl)-1,3,4-oxadiazole-2(3H)-thione] | 46.6 ± 4.6 µM | 0.156 µg/mL (≈ 0.742 µM) | 0.313 µg/mL (≈ 1.49 µM) | 0.156 µg/mL (≈ 0.742 µM) | – | 4 fold | – | 1.25 µg/mL (≈ 5.95 µM) | – | 3.27 ± 0.3 µM | – | equipotent activity | – | – | – | – | – | – |
| COc1ccc(CCc2n[nH]c(=S)o2)cc1 [Compound 4g, 5-(4-Methoxyphenethyl)-1,3,4-oxadiazole-2(3H)-thione] | 50.8 ± 2.1 µM | 0.625 µg/mL (≈ 2.64 µM) | 0.156 µg/mL (≈ 0.66 µM) | 2.5 µg/mL (≈ 10.6 µM) | – | – | – | 0.313 µg/mL (≈ 1.32 µM) | equipotent activity | 5.61 ± 0.3 µM | – | – | – | equipotent | – | – | – | – |
| S=c1[nH]nc(Cc2ccc(Cl)cc2Cl)o1 [Compound 4h, 5-(2,4-Dichlorobenzyl)-1,3,4-oxadiazole-2(3H)-thione] | 57.8 ± 1.8 µM | – | 1.25 µg/mL (≈ 4.79 µM) | 0.625 µg/mL (≈ 2.39 µM) | – | 4 fold | – | 0.156 µg/mL (≈ 0.597 µM) | two-fold activities | 42.4 ± 1.2 µM | 0.156 µg/mL (≈ 0.597 µM) | – | weak inhibitory activities | considerably less active | – | – | – | – |
| COc1ccccc1CCc1n[nH]c(=S)o1 [Compound 4i, 5-(2-Methoxyphenethyl)-1,3,4-oxadiazole-2(3H)-thione] | 40.2 ± 3.3 µM | 0.625 µg/mL (≈ 2.64 µM) | 0.156 µg/mL (≈ 0.66 µM) | – | – | – | – | 0.313 µg/mL (≈ 1.32 µM) | equipotent activity | 6.22 ± 0.4 µM | – | – | – | equipotent | Equipotent | 0.313 µg/mL (≈ 1.32 µM) | – | – |
| S=c1[nH]nc(Cc2ccc(Cl)cc2)o1 [Compound 4j, 5-(4-Chlorobenzyl)-1,3,4-oxadiazole-2(3H)-thione] | 51.6 ± 2.1 µM | 1.25 µg/mL (≈ 5.51 µM) | 0.313 µg/mL (≈ 1.38 µM) | 0.313 µg/mL (≈ 1.38 µM) | – | – | – | 0.156 µg/mL (≈ 0.688 µM) | two-fold activities | 1.15 ± 0.2 µM | – | – | – | – | – | – | 20 fold | – |
| S=c1[nH]nc(Cc2ccccc2Cl)o1 [Compound 4k, 5-(2-Chlorobenzyl)-1,3,4-oxadiazole-2(3H)-thione] | 34.4 ± 3.2 µM | 0.313 µg/mL (≈ 1.38 µM) | – | – | – | – | 0.156 µg/mL (≈ 0.688 µM) | 0.156 µg/mL (≈ 0.688 µM) | two-fold activities | 12.9 ± 0.6 µM | – | equipotent activity | – | equipotent | more effective | 0.156 µg/mL (≈ 0.688 µM) | – | – |
| COc1ccc(Cc2n[nH]c(=S)o2)cc1 [Compound 4l, 5-(4-Methoxybenzyl)-1,3,4-oxadiazole-2(3H)-thione] | 88.2 ± 4.1 µM | 2.5 µg/mL (≈ 11.2 µM) | 0.313 µg/mL (≈ 1.41 µM) | 0.625 µg/mL (≈ 2.81 µM) | – | – | – | 0.156 µg/mL (≈ 0.702 µM) | two-fold activities | 5.83 ± 0.08 µM | – | – | – | – | – | – | – | – |
| COc1ccccc1Cc1n[nH]c(=S)o1 [Compound 4m, 5-(2-Methoxybenzyl)-1,3,4-oxadiazole-2(3H)-thione] | 42.7 ± 3.7 µM | 0.156 µg/mL (≈ 0.702 µM) | 0.625 µg/mL (≈ 2.81 µM) | 1.25 µg/mL (≈ 5.62 µM) | – | 4 fold | – | 0.313 µg/mL (≈ 1.41 µM) | equipotent activity | 5.6 ± 0.6 µM | – | – | – | – | – | – | – | – |
| CCCOC(=O)c1cc(O)c(O)c(O)c1 [Propyl gallate, reference compound] | 40.8 ± 1.2 µM | – | – | – | – | – | – | – | – | – | – | – | – | – | – | – | – | – |
| NC(N)=S [Thiourea, reference compound] | – | – | – | – | – | – | – | – | – | – | – | – | – | – | – | – | – | 22.3 ± 1.2 µM |
